Biological target: T1, NAMPT (Homo sapiens, UniProt P43490)
T1 construct: purchased Abcam ab221819
Experiment: NAMPT Activity Assay (Abcam #ab221819)
Format: biochemical
Conditions: purified NAMPT, percent inhibition from OD450 nm; compound concentration not given
Experimental: The NAMPT Activity Assay (Abcam #ab221819) was performed following manufacturers two-step reaction protocol. Briefly, compounds were added to a clear 96-well plate using the HP D300e Digital Dispenser. Purified NAMPT was added to all wells except the No NAMPT controls. Reaction Mix #1 was added to each well and the plate was incubated at 30*C for 1 hr followed by the addition of Reaction Mix #2. Absorbance was measured at OD450 nm using a multimode plate reader. Readings were recorded for 5 minutes and percent inhibition was calculated using: (1-(OD450 nm compound/OD450nm no drug))*100.

T1 sequence (P43490 whole entry): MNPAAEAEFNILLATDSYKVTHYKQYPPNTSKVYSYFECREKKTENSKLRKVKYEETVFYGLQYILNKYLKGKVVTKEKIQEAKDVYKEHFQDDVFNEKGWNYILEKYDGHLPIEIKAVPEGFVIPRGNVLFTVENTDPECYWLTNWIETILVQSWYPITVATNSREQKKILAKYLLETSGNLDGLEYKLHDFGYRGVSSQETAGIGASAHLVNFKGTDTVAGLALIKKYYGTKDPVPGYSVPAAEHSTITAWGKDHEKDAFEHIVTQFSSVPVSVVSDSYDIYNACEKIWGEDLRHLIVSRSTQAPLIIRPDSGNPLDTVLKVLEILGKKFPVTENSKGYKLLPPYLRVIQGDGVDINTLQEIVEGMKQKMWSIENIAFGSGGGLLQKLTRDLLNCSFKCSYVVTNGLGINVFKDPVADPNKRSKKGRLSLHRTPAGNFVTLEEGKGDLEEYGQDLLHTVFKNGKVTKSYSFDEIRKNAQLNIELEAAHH

Compound	NAMPT Inhibition Code*
COC(=O)c1cc(-c2ccc(C(=O)NCCc3cn[nH]c3)cn2)ccc1N(CC1CC1)C(C)=O [I-T2297, Methyl 2-[acetyl(cyclopropylmethyl)amino]-5-[5-[2-(1H-pyrazol-4-yl)ethylcarbamoyl]-2-pyridyl]benzoate]	C (C = ≥66% inhibition)
CC(=O)N(CC1CC1)c1ccc(-c2ccc(C(=O)N3Cc4ccncc4C3)cn2)cc1Cl [I-T2138, N-[2-Chloro-4-[5-(1,3-dihydropyrrolo[3,4-c]pyridine-2-carbonyl)-2-pyridyl]phenyl]-N-(cyclopropylmethyl)acetamide]	A (*A = <33% inhibition)
CC(=O)N(CC1CC1)c1ccc(-c2ccc(NC(=O)Cc3cccnc3)cn2)cc1Cl [I-T2267, N-[6-[4-[acetyl(cyclopropylmethyl)amino]-3-chloro-phenyl]-3-pyridyl]-2-(3-pyridyl)acetamide]	C (C = ≥66% inhibition)
CC(=O)N(CC1CC1)c1ccc(-c2ccc(C(=O)NCC3CCCN(C)C3)cn2)cc1Cl (stereo not drawn) [I-T2338, 6-[4-[acetyl(cyclopropylmethyl)amino]-3-chloro-phenyl]-N-[(1-methyl-3-piperidyl)methyl]pyridine-3-carboxamide]	A (*A = <33% inhibition)
CC(=O)N(CC1CC1)c1ccc(-c2ccc(C(=O)N3Cc4ccccc4C3)cn2)cc1Cl [I-T2270, N-[2-Chloro-4-[5-(isoindoline-2-carbonyl)-2-pyridyl]phenyl]-N-(cyclopropylmethyl)acetamide]	B (B = >33 to <66% inhibition)
CC(=O)N(CC1CC1)c1ccc(-c2ccc(C(=O)NCc3cncnc3)cn2)cc1Cl [I-T2147, 6-[4-[Acetyl(cyclopropylmethyl)amino]-3-chloro-phenyl]-N-(pyrimidin-5-ylmethyl)pyridine-3-carboxamide]	A (*A = <33% inhibition)
CC(=O)N(CC(F)F)c1ccc(-c2ccc(C(=O)NCCCc3cn[nH]c3)cn2)cc1Cl [I-T2108, 6-[4-[Acetyl(2,2-difluoroethyl)amino]-3-chloro-phenyl]-N-[3-(1H-pyrazol-4-yl)propyl]pyridine-3-carboxamide]	C (C = ≥66% inhibition)
CC(=O)N(CC1CC1)c1ccc(-c2ccc(C(=O)NCCc3cccnc3)cn2)cc1F [I-T2301, 6-[4-[acetyl(cyclopropylmethyl)amino]-3-fluoro-phenyl]-N-[2-(3-pyridyl)ethyl]pyridine-3-carboxamide]	C (C = ≥66% inhibition)
CC(=O)N(CC(F)F)c1ccc(-c2ccc(C(=O)NCCCn3ccnc3)cn2)cc1Cl [I-T2288, 6-[4-[Acetyl(2,2-difluoroethyl)amino]-3-chloro-phenyl]-N-(3-imidazol-1-ylpropyl)pyridine-3-carboxamide]	C (C = ≥66% inhibition)
CC(=O)N(CC1CC1)c1ccc(-c2ccc(C(=O)NCc3ncco3)cn2)cc1Cl [I-T2364, 6-[4-[acetyl(cyclopropylmethyl)amino]-3-chloro-phenyl]-N-(oxazol-2-ylmethyl)pyridine-3-carboxamide]	A (*A = <33% inhibition)
CC(=O)N(CC(F)F)c1ccc(-c2ccc(C(=O)NCCCc3cc[nH]n3)cn2)cc1Cl [I-T2287, 6-[4-[Acetyl(2,2-difluoroethyl)amino]-3-chloro-phenyl]-N-[3-(1H-pyrazol-3-yl)propyl]pyridine-3-carboxamide]	C (C = ≥66% inhibition)
COC(=O)c1cc(-c2ccc(C(=O)Nc3cnc4nccn4c3)cn2)ccc1N(CC1CC1)C(C)=O [I-T2295, Methyl 2-[acetyl(cyclopropylmethyl)amino]-5-[5-(imidazo[1,2-a]pyrimidin-6-ylcarbamoyl)-2-pyridyl]benzoate]	C (C = ≥66% inhibition)
CC(=O)N(CC1CC1)c1ccc(-c2ccc(C(=O)NCc3ccc(C#N)nc3)cn2)cc1Cl [I-T2371, 6-[4-[acetyl(cyclopropylmethyl)amino]-3-chloro-phenyl]-N-[(6-cyano-3-pyridyl)methyl]pyridine-3-carboxamide]	C (C = ≥66% inhibition)
CC(=O)N(CC(F)F)c1ccc(-c2ccc(C(=O)NCCc3cn[nH]c3)cn2)cc1Cl [I-T2114, 6-[4-[Acetyl(2,2-difluoroethyl)amino]-3-chloro-phenyl]-N-[2-(1H-pyrazol-4-yl)ethyl]pyridine-3-carboxamide]	A (*A = <33% inhibition)
CC(=O)N(CC1CC1)c1ccc(-c2ccc(C(=O)NCCc3ccncc3)cn2)cc1Cl [I-T2308, 6-[4-[Acetyl(cyclopropylmethyl)amino]-3-chloro-phenyl]-N-[2-(4-pyridyl)ethyl]pyridine-3-carboxamide]	C (C = ≥66% inhibition)
CC(=O)N(CC1CC1)c1ccc(-c2ccc(C(=O)NCC3CCCCO3)cn2)cc1Cl (stereo not drawn) [I-T2340, 6-[4-[acetyl(cyclopropylmethyl)amino]-3-chloro-phenyl]-N-(tetrahydropyran-2-ylmethyl)pyridine-3-carboxamide]	A (*A = <33% inhibition)
CC(=O)N(CC1CC1)c1ccc(-c2ccc(C(=O)NC3Cc4ccccc4C3)cn2)cc1Cl [I-T2152, 6-[4-[Acetyl(cyclopropylmethyl)amino]-3-chloro-phenyl]-N-indan-2-yl-pyridine-3-carboxamide]	B (B = >33 to <66% inhibition)
CC(=O)N(CC(F)F)c1ccc(-c2ccc(C(=O)Nc3cnc4nccn4c3)cn2)cc1Cl [I-T2201, 6-[4-[Acetyl(2,2-difluoroethyl)amino]-3-chloro-phenyl]-N-imidazo[1,2-a]pyrimidin-6yl-pyridine-3-carboxamide]	C (C = ≥66% inhibition)
CC(=O)N(CC1CC1)c1ccc(-c2ccc(C(=O)N3Cc4ccc(F)cc4C3)cn2)cc1Cl [I-T2336, N-[2-chloro-4-[5-(5-fluoroisoindoline-2-carbonyl)-2-pyridyl]phenyl]-N-(cyclopropylmethyl) acetamide]	C (C = ≥66% inhibition)
CC(=O)N(CC1CC1)c1ccc(-c2ccc(C(=O)NCCCc3cn[nH]c3)cn2)cc1F [I-T2302, 6-[4-[acetyl(cyclopropylmethyl)amino]-3-fluoro-phenyl]-N-[3-(1H-pyrazol-4-yl)propyl]pyridine-3-carboxamide]	C (C = ≥66% inhibition)
COC(=O)c1cc(-c2ccc(C(=O)NCCCc3cn[nH]c3)cn2)ccc1N(CC1CC1)C(C)=O [I-T2298, Methyl 2-[acetyl(cyclopropylmethyl)amino]-5-[5-[3-(1H-pyrazol-4-yl)propylcarbamoyl]-2-pyridyl]benzoate]	C (C = ≥66% inhibition)
CC(=O)N(CC1CC1)c1ccc(-c2ccc(NC(=O)Cc3ccc(Cl)nc3)cn2)cc1Cl [I-T2391, N-[6-[4-[acetyl(cyclopropylmethyl)amino]-3-chloro-phenyl]-3-pyridyl]-2-(6-chloro-3-pyridyl)acetamide]	C (C = ≥66% inhibition)
CC(=O)N(CC1CC1)c1ccc(-c2ccc(C(=O)NCCCc3cc[nH]n3)cn2)cc1Cl [I-T2127, 6-[4-[Acetyl(cyclopropylmethyl)amino]-3-chloro-phenyl]-N-[3-(1H-pyrazol-3-yl)propyl]pyridine-3-carboxamide]	C (C = ≥66% inhibition)
CC(=O)N(CC1CC1)c1ccc(-c2ccc(C(=O)NCCCc3cc[nH]n3)cn2)cc1C#N [I-T2313, 6-[4-[acetyl(cyclopropylmethyl)amino]-3-cyano-phenyl]-N-[3-(1H-pyrazol-5-yl)propyl]pyridine-3-carboxamide]	C (C = ≥66% inhibition)
CC(=O)N(CC1CC1)c1ccc(-c2ccc(C(=O)NCCc3cncs3)cn2)cc1Cl [I-T2360, 6-[4-[acetyl(cyclopropylmethyl)amino]-3-chloro-phenyl]-N-(2-thiazol-5-ylethyl)pyridine-3-carboxamide]	C (C = ≥66% inhibition)
CC(=O)N(CC1CC1)c1ccc(-c2ccc(C(=O)NCCC3CCCCC3)cn2)cc1Cl [I-T2348, 6-[4-[acetyl(cyclopropylmethyl)amino]-3-chloro-phenyl]-N-(2-cyclohexylethyl)pyridine-3-carboxamide]	C (C = ≥66% inhibition)
CC(=O)N(CC1CC1)c1ccc(-c2ccc(C(=O)NCC3CC(F)(F)C3)cn2)cc1Cl [I-T2345, 6-[4-[acetyl(cyclopropylmethyl)amino]-3-chloro-phenyl]-N-[(3,3-difluorocyclobutyl)methyl]pyridine-3-carboxamide]	A (*A = <33% inhibition)
CC(=O)N(CC(F)F)c1ccc(-c2ccc(NC(=O)/C=C/c3cccnc3)cn2)cc1Cl [I-T2293, (E)-N-[6-[4-[acetyl(2,2-difluoroethyl)amino]-3-chloro-phenyl]-3-pyridyl]-3-(3-pyridyl)prop-2-enamide]	C (C = ≥66% inhibition)
CCOc1ccc(CNC(=O)c2ccc(-c3ccc(N(CC4CC4)C(C)=O)c(Cl)c3)nc2)cn1 [I-T2373, 6-[4-[acetyl(cyclopropylmethyl)amino]-3-chloro-phenyl]-N-[(6-ethoxy-3-pyridyl)methyl]pyridine-3-carboxamide]	A (*A = <33% inhibition)
CC(=O)N(CC1CC1)c1ccc(-c2ccc(C(=O)NCc3cc[nH]n3)cn2)cc1Cl [I-T2132, 6-[4-[Acetyl(cyclopropylmethyl)amino]-3-chloro-phenyl]-N-(1H-pyrazol-3-ylmethyl)pyridine-3-carboxamide]	A (*A = <33% inhibition)
